Source: patent US8697867B2, “Cross-linked cyclic amine compounds and agents for pest control” (Nippon Soda Co., Ltd., priority 2005, dated 2014)

Experiments:
Tetranychus urticae = assay: Effectiveness against Tetranychus urticae (adulticidal rate on common bean leaf); assay type: in vivo; conditions: 125 ppm wettable powder dilution; adult females resistant to organophosphorus pesticides; 3 days after application; 25° C., 65% humidity
Panonychus citri = assay: Effectiveness against Panonychus citri (mandarin orange leaf in petri dish); assay type: in vivo; conditions: 125 ppm emulsion dilution; adults removed 3 days after application; examined on the 11th day; 25° C., 65% humidity
Protocol: 10 adult female Panonychus citri were inoculated on the leaf of a mandarin orange, which was placed in a petri dish. After the inoculation, the drug solution, which was prepared by following the method of the emulsion shown in Example 2 of the drugs and by diluting with water to achieve the compound concentration of 125 ppm, was applied using a rotary spreading tower. The dish was placed in a temperature-controlled room where the temperature and humidity were set to 25° C. and 65% respectively, adults were removed 3 days after the application, and whether eggs laid during these 3 days could grow to become adults was examined on the 11th day.

SMILES	insecticidal rate (adulticidal rate) (Tetranychus urticae) [%]	insecticidal rate (whether eggs laid during 3 days could grow to adults) (Panonychus citri) [%]
FC(F)(F)c1ccc(OC2CC3CCC(C2)N3c2ccc(C(F)(F)F)cn2)nc1 (stereo not drawn) [Compound 2-3, 3α-(5-trifluoromethyl-2-pyridyloxy)-8-(5-trifluoromethyl-pyridin-2-yl)-8-azabicyclo[3.2.1]octane]	100	–
CCCOc1cc(C(F)(F)F)ccc1OC1CC2CCC(C1)N2c1ccc(C(F)(F)F)c(F)c1 (stereo not drawn) [Compound 4-70, 3α-[2-n-propoxy-4-(trifluoromethyl)phenoxy]-8-[3-fluoro-4-(trifluoromethyl)phenyl]-8-azabicyclo[3.2.1]octane]	100	100
